In patent US5637583A, “Aminocyclohexylesters and uses thereof” (University of British Columbia, priority 1994, dated 1997):
Counter-ions that a name gives are not always drawn.

Legend:
cardiac sodium channel [1] = molecular target: T1, cardiac sodium channel (Rattus norvegicus, UniProt P15389); assay: Whole cell voltage clamp tests, single isolated adult rat cardiac cells; assay type: cell-based; settings: whole cell voltage clamp, isolated adult rat cardiac cells; read-out: EC50 (concentration required to produce a 50% reduction in sodium current)
T1 sequence (P15389 whole entry): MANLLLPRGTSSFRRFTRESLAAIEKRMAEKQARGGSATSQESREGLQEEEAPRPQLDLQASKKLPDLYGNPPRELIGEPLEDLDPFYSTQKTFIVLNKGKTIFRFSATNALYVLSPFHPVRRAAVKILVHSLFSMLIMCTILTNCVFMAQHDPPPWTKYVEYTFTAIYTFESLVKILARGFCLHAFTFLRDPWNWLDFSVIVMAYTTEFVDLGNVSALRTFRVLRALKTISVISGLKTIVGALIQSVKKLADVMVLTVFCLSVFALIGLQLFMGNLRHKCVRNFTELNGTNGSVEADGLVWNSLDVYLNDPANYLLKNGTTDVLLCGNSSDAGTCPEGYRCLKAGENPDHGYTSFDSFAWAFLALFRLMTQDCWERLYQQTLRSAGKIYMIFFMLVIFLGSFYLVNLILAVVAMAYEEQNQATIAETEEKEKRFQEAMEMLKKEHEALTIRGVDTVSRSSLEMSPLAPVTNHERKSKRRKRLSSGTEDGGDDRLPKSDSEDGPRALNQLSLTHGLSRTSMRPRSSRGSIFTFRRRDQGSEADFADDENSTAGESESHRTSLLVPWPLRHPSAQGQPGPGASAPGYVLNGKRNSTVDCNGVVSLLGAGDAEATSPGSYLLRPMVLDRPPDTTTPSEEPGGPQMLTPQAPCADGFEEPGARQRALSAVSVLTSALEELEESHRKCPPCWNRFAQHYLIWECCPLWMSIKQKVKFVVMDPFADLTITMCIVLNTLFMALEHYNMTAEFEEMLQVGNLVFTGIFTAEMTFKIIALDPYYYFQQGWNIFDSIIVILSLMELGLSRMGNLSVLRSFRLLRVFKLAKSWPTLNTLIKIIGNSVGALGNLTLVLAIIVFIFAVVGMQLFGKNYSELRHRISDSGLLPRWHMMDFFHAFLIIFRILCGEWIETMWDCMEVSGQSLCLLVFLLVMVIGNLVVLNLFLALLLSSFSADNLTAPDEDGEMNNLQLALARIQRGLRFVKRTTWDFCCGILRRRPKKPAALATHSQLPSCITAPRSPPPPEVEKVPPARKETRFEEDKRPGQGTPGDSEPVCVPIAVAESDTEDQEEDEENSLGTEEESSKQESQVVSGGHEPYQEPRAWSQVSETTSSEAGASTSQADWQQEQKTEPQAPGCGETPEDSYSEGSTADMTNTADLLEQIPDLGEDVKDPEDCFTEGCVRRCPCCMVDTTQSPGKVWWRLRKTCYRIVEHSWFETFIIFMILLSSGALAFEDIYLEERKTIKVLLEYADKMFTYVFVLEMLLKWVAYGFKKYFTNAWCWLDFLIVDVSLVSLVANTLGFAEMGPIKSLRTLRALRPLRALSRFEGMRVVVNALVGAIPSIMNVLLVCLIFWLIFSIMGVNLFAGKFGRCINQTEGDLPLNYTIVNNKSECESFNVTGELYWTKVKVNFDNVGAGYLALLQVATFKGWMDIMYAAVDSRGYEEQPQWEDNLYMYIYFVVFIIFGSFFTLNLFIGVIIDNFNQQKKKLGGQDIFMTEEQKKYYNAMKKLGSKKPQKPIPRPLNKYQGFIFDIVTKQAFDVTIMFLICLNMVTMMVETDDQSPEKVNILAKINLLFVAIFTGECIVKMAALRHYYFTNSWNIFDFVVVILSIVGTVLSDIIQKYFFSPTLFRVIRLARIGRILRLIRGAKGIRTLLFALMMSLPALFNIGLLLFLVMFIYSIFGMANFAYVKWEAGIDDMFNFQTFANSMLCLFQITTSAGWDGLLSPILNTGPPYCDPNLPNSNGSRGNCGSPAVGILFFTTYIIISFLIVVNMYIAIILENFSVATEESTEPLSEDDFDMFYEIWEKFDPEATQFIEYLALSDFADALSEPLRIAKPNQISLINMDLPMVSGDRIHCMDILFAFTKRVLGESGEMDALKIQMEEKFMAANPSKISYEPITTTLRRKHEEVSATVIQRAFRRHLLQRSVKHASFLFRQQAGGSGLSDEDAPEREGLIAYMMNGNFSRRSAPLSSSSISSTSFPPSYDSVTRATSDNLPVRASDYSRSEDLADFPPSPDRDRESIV
Protocol: In order to directly measure cardiac sodium channel blockade, standard whole cell voltage clamp tests were carried out using single isolated adult rat cardiac cells. Results in the form of EC50 values, which are micromolar concentrations required to produce a 50% reduction in sodium current, are presented in Table 6.

phrenic nerve diaphragm = assay: Nerve conduction blockade in vitro, phrenic nerve diaphragm; settings: Rattus norvegicus; phrenic nerve diaphragm, in vitro; read-out: concentration at which the twitch response from electrical stimulation is reduced to 50% of control value
Protocol: In order to establish the potency of the compounds to block nerve conduction, two in vitro assays were used. The first was the phrenic nerve diaphragm of the rat. […] Nerve blockade in these preparations is indicative of local anesthetic activity. Compounds were administered to the bath solution in increasing concentrations while the preparations were being stimulated with regular electrical impulses.

[2] = system: central nervous system of the rat; assay: Opioid-like effects during in vivo tests
Source text: This provides evidence that some of the compounds may have analgesic activity through activation of opioid receptors. Examination of members of this series of compounds by analgesic assays and binding studies show the presence of opioid binding and activity.

potassium channels = assay: Electrical stimulation of left ventricle in rats (ERP; ancillary blockade of potassium channels); assay type: in vivo, rat; settings: infusion rate for 25% increase from control; anesthetized rats
Source text: Two silver stimulating electrodes were inserted through the chest wall and implanted in the left ventricle. Square wave stimulation was used to determine threshold current for capture, ventricular fibrillation threshold current, and effective refractory period (Howard, P. G. and Walker, M. J. A., Proc. West. Pharmacol. Soc. 33:123-127 (1990)). […] The threshold current for capture is represented by "iT". The fibrillation threshold current is represented by "VFT". The effective refracting period is represented by "ERP".

[3] = system: cardiac potassium channel; assay: ECG parameters in anesthetized rats (QT; ancillary cardiac potassium channel blockade); assay type: in vivo, rat; settings: i.v. bolus, Q-T interval
Protocol: Various ECG parameters were measured. […] The increases in P-R interval, QRS interval and RSh indicate cardiac sodium channel blockade while the increase in Q-T interval indicates ancillary cardiac potassium channel blockade which is the property of a type 1 a antiarrhythmic.

cardiac sodium channel [4] = molecular target: T1, cardiac sodium channel; assay: Electrical stimulation of left ventricle in rats (iT, VFT; cardiac sodium channel blockade); assay type: in vivo; settings: infusion rate for 25% increase from control; anesthetized rats
Protocol: Rats were prepared according to the preceding procedure. Two silver stimulating electrodes were inserted through the chest wall and implanted in the left ventricle. Square wave stimulation was used to determine threshold current for capture, ventricular fibrillation threshold current, and effective refractory period (Howard, P. G. and Walker, M. J. A., Proc. West. Pharmacol. Soc. 33:123-127 (1990)). Table 5 contains ED25 values for these indices of cardiac sodium channel blockade, where the ED25 is the infusion rate in micromoles/kg/minute of compound required to elicit a 25% increase from control. The increases in refractoriness indicate ancillary blockade of potassium channels. The threshold current for capture is represented by "iT". The fibrillation threshold current is represented by "VFT". The effective refracting period is represented by "ERP".

[5] = system: hypogastric nerve vas deferens; assay: Nerve conduction blockade in vitro, hypogastric nerve vas deferens; settings: hypogastric nerve vas deferens, in vitro; read-out: concentration at which the twitch response from electrical stimulation is reduced to 50% of control value
Protocol: In order to establish the potency of the compounds to block nerve conduction, two in vitro assays were used. The first was the phrenic nerve diaphragm of the rat. The second was the hypogastric nerve vas deferens. Nerve blockade in these preparations is indicative of local anesthetic activity. Compounds were administered to the bath solution in increasing concentrations while the preparations were being stimulated with regular electrical impulses.

[6] = system: conscious rats subject to coronary artery occlusion; assay: Antiarrhythmic efficacy: incidence of cardiac arrhythmias in conscious rats subject to coronary artery occlusion; assay type: in vivo, rat; settings: score 0-9 per Table 2, 30 min after occlusion
Protocol: Antiarrhythmic efficacy was assessed by investigating the effect of a compound on the incidence of cardiac arrhythmias in conscious rats subject to coronary artery occlusion. Rats weighing 200-300 gms were subjected to preparative surgery and assigned to groups in a random block design. In each case, the animal was anesthetized with halothane during surgical preparation. The left femoral artery was cannulated for measurement of mean arterial blood pressure and withdrawal of blood samples. The left femoral vein was also cannulated for injection of drugs. The thoracic cavity was opened and a polyethylene occluder loosely placed around the left anterior descending coronary artery. The thoracic cavity was then closed. ECG was recorded by insertion of electrodes placed along the anatomical axis of the heart. All cannulae and electrode leads were exteriorized in the mid scapular region. In random and double-blind manner, about 0.5 to 2 hours post-surgery, an infusion of vehicle, or the compound to be tested was given. After 15 minutes infusion, the occluder was pulled so as to produce coronary artery occlusion. ECG, arrhythmias, blood pressure, heart rate and mortality were monitored for 30 minutes after occlusion. Arrhythmias were recorded as ventricular tachycardia (VT) and ventricular fibrillation (VF) and scored according to Curtis, M. J. and Walker, M. J. A., Cardiovasc.
VPB=ventricular premature beats
VT=ventricular tachycardia
VF=ventricular fibrillation
Occlusion is associated with increases in R-wave height and "S-T" segment elevation; and an occluded zone (measured after death by cardiogreen dye perfusion) in the range of 25%-50% of total left-ventricular weight.

cardiac sodium channel [7] = molecular target: T1, cardiac sodium channel; assay: ECG parameters in anesthetized rats (RSh, PR, QRS; cardiac sodium channel blockade); assay type: in vivo; settings: i.v. bolus
Protocol: Rats weighing 200-250 gms were used in this example. Animals were anesthetized with 60 mg/kg pentobarbitone i.p. The carotid artery and jugular vein were cannulated for measurement of blood pressure and drug injection, respectively. ECG was recorded by insertion of electrodes placed along the anatomical axis of the heart. All compounds were given as bolus injections.
Various ECG parameters were measured. The most sensitive of these for measuring sodium channel blockade is RSh (J. Pharmacology Methods 27:51-58 (1992)). Table 4 describes the results of the tests as ED25 (micromoles/kg) which are the doses required to produce a 25% increase in the parameter measured (ne=not estimated). The increases in P-R interval, QRS interval and RSh indicate cardiac sodium channel blockade while the increase in Q-T interval indicates ancillary cardiac potassium channel blockade which is the property of a type 1 a antiarrhythmic.

Cl.O=C(Cc1csc2ccccc12)O[C@@H]1CCCC[C@H]1N1CCOCC1 (racemic) [Compound #6, (±)-trans-[2-(4-morpholinyl)cyclohexyl]benzo[b]thiophene-3-acetate monohydrochloride]
EC50 (cardiac sodium channel [1]): 150 µM
IC50 (phrenic nerve diaphragm): 30 µM
opioid-like effects on the central nervous system [2]: induced opioid-like effects on the central nervous system of the rat
ED25 ERP (effective refractory period) (potassium channels): 7 µmol/kg/min
ED25 QT (dose required to produce a 25% increase) [3]: 79 µmol/kg
ED25 VFT (fibrillation threshold current) (cardiac sodium channel [4]): 9 µmol/kg/min
ED25 iT (threshold current for capture) (cardiac sodium channel [4]): 12 µmol/kg/min
IC50 [5]: 100 µM
AS (arrhythmia score) ([6]; dose 5 micromoles/kg/min infusion): 1.8
ED25 RSh (dose required to produce a 25% increase) (cardiac sodium channel [7]): 100 µmol/kg

O=C(COc1cccc2ccccc12)O[C@@H]1CCCC[C@H]1N1CCCC1 (relative stereo) [Compound #2, (±)-trans-[2-(1-pyrrolidinyl)cyclohexyl](1-naphthoxy)acetate monohydrochloride]
EC50 (cardiac sodium channel [1]): 50 µM
IC50 (phrenic nerve diaphragm): 120 µM
ED25 ERP (effective refractory period) (potassium channels): 3 µmol/kg/min
ED25 QT (dose required to produce a 25% increase) [3]: 53 µmol/kg
ED25 VFT (fibrillation threshold current) (cardiac sodium channel [4]): 2 µmol/kg/min
ED25 iT (threshold current for capture) (cardiac sodium channel [4]): 5 µmol/kg/min
IC50 [5]: 25 µM
AS (arrhythmia score) ([6]; dose 20 micromoles/kg/min infusion): 4
ED25 PR (dose required to produce a 25% increase) (cardiac sodium channel [7]; P-R interval): 23 µmol/kg
ED25 RSh (dose required to produce a 25% increase) (cardiac sodium channel [7]): 11 µmol/kg
